≈ marks a conversion by molar mass, not a printed value.

The test system of the first experiment is Klebsiella pneumoniae. Description: Antimicrobial activity against armA positive Klebsiella pneumoniae DU producing beta lactamase CTX-M-3 by Etest method. It is filed as functional.
Turning to `NCC[C@H](O)C(=O)N[C@@H]1C[C@H](N)[C@@H](O[C@H]2O[C@H](CN)[C@@H](O)[C@H](O)[C@H]2O)[C@H](O)[C@H]1O[C@H]1O[C@H](CO)[C@@H](O)[C@H](N)[C@H]1O` [AMIKACIN], the MIC (commonly the lowest concentration found to suppress growth) was over 256 µg/mL.

Compound `CO/N=C(\C(=O)N[C@@H]1C(=O)N2C(C(=O)O)=C(COC(C)=O)CS[C@H]12)c1csc(N)n1` [CEFOTAXIME] gave a minimal inhibitory concentration (MIC) of over 32 µg/mL.

For the compound `CC(C)(O/N=C(\C(=O)N[C@@H]1C(=O)N2C(C(=O)[O-])=C(C[n+]3ccccc3)CS[C@H]12)c1csc(N)n1)C(=O)O` [CEFTAZIDIME], the MIC is 2 µg/mL (≈ 3.66 µM).

Compound `O=C(O)c1cn(C2CC2)c2cc(N3CCNCC3)c(F)cc2c1=O` [CIPROFLOXACIN] had an MIC of 0.125 µg/mL (≈ 0.377 µM). Compared with the last compound, the MIC is about 16-fold lower.

In the next experiment the test system is Escherichia coli. Description: Antimicrobial activity against armA positive Escherichia coli MEZ producing beta lactamase CTX-M-3 by Etest method. It is filed as functional.
On to `NCC[C@H](O)C(=O)N[C@@H]1C[C@H](N)[C@@H](O[C@H]2O[C@H](CN)[C@@H](O)[C@H](O)[C@H]2O)[C@H](O)[C@H]1O[C@H]1O[C@H](CO)[C@@H](O)[C@H](N)[C@H]1O` [AMIKACIN], for which the minimum inhibitory concentration (MIC) was over 256 µg/mL.

In the case of `CO/N=C(\C(=O)N[C@@H]1C(=O)N2C(C(=O)O)=C(COC(C)=O)CS[C@H]12)c1csc(N)n1` [CEFOTAXIME], the minimum inhibitory concentration (MIC) is over 32 µg/mL.

On to `CC(C)(O/N=C(\C(=O)N[C@@H]1C(=O)N2C(C(=O)[O-])=C(C[n+]3ccccc3)CS[C@H]12)c1csc(N)n1)C(=O)O` [CEFTAZIDIME], for which it took 3 µg/mL (≈ 5.49 µM) to inhibit growth (MIC).

For the compound `O=C(O)c1cn(C2CC2)c2cc(N3CCNCC3)c(F)cc2c1=O` [CIPROFLOXACIN], the minimal inhibitory concentration (MIC) is over 32 µg/mL.

The next experiment deals with Escherichia coli. Description: Antimicrobial activity against armA positive Escherichia coli TOP10 harboring plasmid COP1 by Etest method. It is filed as functional.
For the compound `CO/N=C(\C(=O)N[C@@H]1C(=O)N2C(C(=O)O)=C(COC(C)=O)CS[C@H]12)c1csc(N)n1` [CEFOTAXIME], it took 0.047 µg/mL (≈ 0.103 µM) to inhibit growth (MIC).

In turn, `CC(C)(O/N=C(\C(=O)N[C@@H]1C(=O)N2C(C(=O)[O-])=C(C[n+]3ccccc3)CS[C@H]12)c1csc(N)n1)C(=O)O` [CEFTAZIDIME] gave an MIC of 0.38 µg/mL (≈ 0.695 µM).

The test system of the next experiment is Escherichia coli. Description: Antimicrobial activity against Escherichia coli TOP10 by Etest method. Format: functional.
As for `NCC[C@H](O)C(=O)N[C@@H]1C[C@H](N)[C@@H](O[C@H]2O[C@H](CN)[C@@H](O)[C@H](O)[C@H]2O)[C@H](O)[C@H]1O[C@H]1O[C@H](CO)[C@@H](O)[C@H](N)[C@H]1O` [AMIKACIN], the MIC came to 1 µg/mL (≈ 1.71 µM).

`CO/N=C(\C(=O)N[C@@H]1C(=O)N2C(C(=O)O)=C(COC(C)=O)CS[C@H]12)c1csc(N)n1` [CEFOTAXIME]: the MIC came out at 0.047 µg/mL (≈ 0.103 µM).

Turning to `CC(C)(O/N=C(\C(=O)N[C@@H]1C(=O)N2C(C(=O)[O-])=C(C[n+]3ccccc3)CS[C@H]12)c1csc(N)n1)C(=O)O` [CEFTAZIDIME], the MIC was 0.38 µg/mL (≈ 0.695 µM).

`O=C(O)c1cn(C2CC2)c2cc(N3CCNCC3)c(F)cc2c1=O` [CIPROFLOXACIN] showed a minimum inhibitory concentration (MIC) of under 0.002 µg/mL.

A further experiment deals with Escherichia coli. Description: Antimicrobial activity against Escherichia coli TOP10 harboring plasmid VOG2 expressing CTX-M-14 and AAC(6 )-Ib gene by Etest method. It is filed as functional.
Turning to `NCC[C@H](O)C(=O)N[C@@H]1C[C@H](N)[C@@H](O[C@H]2O[C@H](CN)[C@@H](O)[C@H](O)[C@H]2O)[C@H](O)[C@H]1O[C@H]1O[C@H](CO)[C@@H](O)[C@H](N)[C@H]1O` [AMIKACIN], the minimal inhibitory concentration (MIC) was found to be 1.5 µg/mL (≈ 2.56 µM).

In turn, `CC(C)(O/N=C(\C(=O)N[C@@H]1C(=O)N2C(C(=O)[O-])=C(C[n+]3ccccc3)CS[C@H]12)c1csc(N)n1)C(=O)O` [CEFTAZIDIME] yielded an MIC of 2 µg/mL (≈ 3.66 µM).

For the next experiment, the system named is Enterobacter cloacae. Description: Antimicrobial activity against armA positive Enterobacter cloacae BEH producing beta lactamase CTX-M-3 by Etest method. Format: functional.
`NCC[C@H](O)C(=O)N[C@@H]1C[C@H](N)[C@@H](O[C@H]2O[C@H](CN)[C@@H](O)[C@H](O)[C@H]2O)[C@H](O)[C@H]1O[C@H]1O[C@H](CO)[C@@H](O)[C@H](N)[C@H]1O` [AMIKACIN] gave an MIC of over 256 µg/mL.

`CO/N=C(\C(=O)N[C@@H]1C(=O)N2C(C(=O)O)=C(COC(C)=O)CS[C@H]12)c1csc(N)n1` [CEFOTAXIME] returned a minimum inhibitory concentration (MIC) of over 32 µg/mL.

On to `CC(C)(O/N=C(\C(=O)N[C@@H]1C(=O)N2C(C(=O)[O-])=C(C[n+]3ccccc3)CS[C@H]12)c1csc(N)n1)C(=O)O` [CEFTAZIDIME], for which the minimum inhibitory concentration (MIC) came to 16 µg/mL (≈ 29.3 µM).

The next experiment relates to Escherichia coli. Description: Antimicrobial activity against rmtB positive Escherichia coli VOG producing beta lactamase CTX-M-14 by Etest method. It is filed as functional.
In turn, `NCC[C@H](O)C(=O)N[C@@H]1C[C@H](N)[C@@H](O[C@H]2O[C@H](CN)[C@@H](O)[C@H](O)[C@H]2O)[C@H](O)[C@H]1O[C@H]1O[C@H](CO)[C@@H](O)[C@H](N)[C@H]1O` [AMIKACIN] displayed an MIC of over 256 µg/mL.

`CO/N=C(\C(=O)N[C@@H]1C(=O)N2C(C(=O)O)=C(COC(C)=O)CS[C@H]12)c1csc(N)n1` [CEFOTAXIME] returned an MIC of over 32 µg/mL.

The compound `CC(C)(O/N=C(\C(=O)N[C@@H]1C(=O)N2C(C(=O)[O-])=C(C[n+]3ccccc3)CS[C@H]12)c1csc(N)n1)C(=O)O` [CEFTAZIDIME] had a minimum inhibitory concentration (MIC) of 6 µg/mL (≈ 11 µM).

`O=C(O)c1cn(C2CC2)c2cc(N3CCNCC3)c(F)cc2c1=O` [CIPROFLOXACIN] showed an MIC of over 32 µg/mL.

For a further experiment, the system named is Escherichia coli. Description: Antimicrobial activity against armA positive Escherichia coli TOP10 producing beta lactamase CTX-M-3 with plasmid BEH by Etest method. Format: functional.
`NCC[C@H](O)C(=O)N[C@@H]1C[C@H](N)[C@@H](O[C@H]2O[C@H](CN)[C@@H](O)[C@H](O)[C@H]2O)[C@H](O)[C@H]1O[C@H]1O[C@H](CO)[C@@H](O)[C@H](N)[C@H]1O` [AMIKACIN] had a minimal inhibitory concentration (MIC) of over 256 µg/mL.

On to `CO/N=C(\C(=O)N[C@@H]1C(=O)N2C(C(=O)O)=C(COC(C)=O)CS[C@H]12)c1csc(N)n1` [CEFOTAXIME], for which the minimal inhibitory concentration (MIC) was over 32 µg/mL.

For the compound `CC(C)(O/N=C(\C(=O)N[C@@H]1C(=O)N2C(C(=O)[O-])=C(C[n+]3ccccc3)CS[C@H]12)c1csc(N)n1)C(=O)O` [CEFTAZIDIME], it took 8 µg/mL (≈ 14.6 µM) to inhibit growth (MIC).

The compound `O=C(O)c1cn(C2CC2)c2cc(N3CCNCC3)c(F)cc2c1=O` [CIPROFLOXACIN] displayed an MIC of under 0.002 µg/mL.

For a further experiment, the system named is Escherichia coli. Description: Antimicrobial activity against armA positive Escherichia coli TOP10 producing beta lactamase CTX-M-3 with plasmid DU by Etest method. Format: functional.
As to `NCC[C@H](O)C(=O)N[C@@H]1C[C@H](N)[C@@H](O[C@H]2O[C@H](CN)[C@@H](O)[C@H](O)[C@H]2O)[C@H](O)[C@H]1O[C@H]1O[C@H](CO)[C@@H](O)[C@H](N)[C@H]1O` [AMIKACIN], the minimum inhibitory concentration (MIC) was over 256 µg/mL.

The compound `CO/N=C(\C(=O)N[C@@H]1C(=O)N2C(C(=O)O)=C(COC(C)=O)CS[C@H]12)c1csc(N)n1` [CEFOTAXIME] displayed an MIC of over 32 µg/mL.

Compound `CC(C)(O/N=C(\C(=O)N[C@@H]1C(=O)N2C(C(=O)[O-])=C(C[n+]3ccccc3)CS[C@H]12)c1csc(N)n1)C(=O)O` [CEFTAZIDIME] yielded a minimal inhibitory concentration (MIC) of 2 µg/mL (≈ 3.66 µM).

In turn, `O=C(O)c1cn(C2CC2)c2cc(N3CCNCC3)c(F)cc2c1=O` [CIPROFLOXACIN] gave an MIC of under 0.002 µg/mL.

A further experiment concerns Escherichia coli. Description: Antimicrobial activity against beta lactamase CTX-M-14 producing Escherichia coli TOP10 harboring plasmid COP2 by Etest method. Format: functional.
As for `NCC[C@H](O)C(=O)N[C@@H]1C[C@H](N)[C@@H](O[C@H]2O[C@H](CN)[C@@H](O)[C@H](O)[C@H]2O)[C@H](O)[C@H]1O[C@H]1O[C@H](CO)[C@@H](O)[C@H](N)[C@H]1O` [AMIKACIN], the MIC amounted to 1 µg/mL (≈ 1.71 µM).

In turn, `CO/N=C(\C(=O)N[C@@H]1C(=O)N2C(C(=O)O)=C(COC(C)=O)CS[C@H]12)c1csc(N)n1` [CEFOTAXIME] returned a minimum inhibitory concentration (MIC) of 8 µg/mL (≈ 17.6 µM).

For `CC(C)(O/N=C(\C(=O)N[C@@H]1C(=O)N2C(C(=O)[O-])=C(C[n+]3ccccc3)CS[C@H]12)c1csc(N)n1)C(=O)O` [CEFTAZIDIME], the minimal inhibitory concentration (MIC) is 1 µg/mL (≈ 1.83 µM).

In another experiment the test system is Escherichia coli. Description: Antimicrobial activity against Escherichia coli TOP10 harboring plasmid VOG1 expressing RmtB, TEM-1, and QepA gene by Etest method. It is filed as functional.
As to `CO/N=C(\C(=O)N[C@@H]1C(=O)N2C(C(=O)O)=C(COC(C)=O)CS[C@H]12)c1csc(N)n1` [CEFOTAXIME], the MIC stood at 0.047 µg/mL (≈ 0.103 µM).

As for `CC(C)(O/N=C(\C(=O)N[C@@H]1C(=O)N2C(C(=O)[O-])=C(C[n+]3ccccc3)CS[C@H]12)c1csc(N)n1)C(=O)O` [CEFTAZIDIME], inhibition of growth (MIC) required 0.38 µg/mL (≈ 0.695 µM).

In another experiment the test system is Escherichia coli. Description: Antimicrobial activity against armA positive Escherichia coli TOP10 producing beta lactamase CTX-M-3 with plasmid MEZ by Etest method. Format: functional.
The compound `NCC[C@H](O)C(=O)N[C@@H]1C[C@H](N)[C@@H](O[C@H]2O[C@H](CN)[C@@H](O)[C@H](O)[C@H]2O)[C@H](O)[C@H]1O[C@H]1O[C@H](CO)[C@@H](O)[C@H](N)[C@H]1O` [AMIKACIN] came in with a minimum inhibitory concentration (MIC) of over 256 µg/mL.

As to `CO/N=C(\C(=O)N[C@@H]1C(=O)N2C(C(=O)O)=C(COC(C)=O)CS[C@H]12)c1csc(N)n1` [CEFOTAXIME], the minimal inhibitory concentration (MIC) was over 32 µg/mL.

In turn, `CC(C)(O/N=C(\C(=O)N[C@@H]1C(=O)N2C(C(=O)[O-])=C(C[n+]3ccccc3)CS[C@H]12)c1csc(N)n1)C(=O)O` [CEFTAZIDIME] had an MIC of 3 µg/mL (≈ 5.49 µM).

Take `O=C(O)c1cn(C2CC2)c2cc(N3CCNCC3)c(F)cc2c1=O` [CIPROFLOXACIN]: the minimum inhibitory concentration (MIC) is under 0.002 µg/mL.

In a further experiment the test system is Escherichia coli. Description: Antimicrobial activity against armA positive Escherichia coli COP producing beta lactamase CTX-M-14 by Etest method.
The compound `NCC[C@H](O)C(=O)N[C@@H]1C[C@H](N)[C@@H](O[C@H]2O[C@H](CN)[C@@H](O)[C@H](O)[C@H]2O)[C@H](O)[C@H]1O[C@H]1O[C@H](CO)[C@@H](O)[C@H](N)[C@H]1O` [AMIKACIN] registered an MIC of over 256 µg/mL.

With `CO/N=C(\C(=O)N[C@@H]1C(=O)N2C(C(=O)O)=C(COC(C)=O)CS[C@H]12)c1csc(N)n1` [CEFOTAXIME], the minimal inhibitory concentration (MIC) is over 32 µg/mL.

The compound `CC(C)(O/N=C(\C(=O)N[C@@H]1C(=O)N2C(C(=O)[O-])=C(C[n+]3ccccc3)CS[C@H]12)c1csc(N)n1)C(=O)O` [CEFTAZIDIME] had an MIC of 1 µg/mL (≈ 1.83 µM).

For `O=C(O)c1cn(C2CC2)c2cc(N3CCNCC3)c(F)cc2c1=O` [CIPROFLOXACIN], the MIC was over 32 µg/mL.

Source of the values: ChEMBL document CHEMBL1275569, “Plasmid-mediated 16S rRNA methylases among extended-spectrum beta-lactamase-producing Enterobacteriaceae isolates” (2008).
